In brackets after ≈: the same amount, converted by molar mass. Like-named read-outs stand apart in the source and are kept apart here.
Tests used:
E. coli MG1655OXA-48 = experiment: Bacterial susceptibility; assay type: cell-based; settings: for MIC: Escherichia coli
OXA-163 = OXA-163 (Klebsiella pneumoniae, UniProt Q6XEC0, DEL214-217/S212D); experiment: Inhibition assay with nitrocefin as reporter, OXA-163; assay type: biochemical; settings: read-out: CDD-97 Ki; OXA-163, nitrocefin substrate
E. coli MG1655 = experiment: Accumulation assay in E. coli; assay type: cell-based; settings: wild-type E. coli MG1655, 10 minutes at 37°C, LC-MS/MS
OXA-48 = OXA-48 (Klebsiella pneumoniae, UniProt Q6XEC0); experiment: Inhibition of OXA-48 mediated nitrocefin hydrolysis; assay type: biochemical; settings: purified OXA-48, nitrocefin substrate, Morrison equation
OXA-10 = OXA-10 (Pseudomonas aeruginosa, UniProt P14489); experiment: Inhibition assay with nitrocefin as reporter, OXA-10; assay type: biochemical
OXA-24 = OXA-24 (Acinetobacter baumannii, UniProt Q8RLA6); experiment: Inhibition assay with nitrocefin as reporter, OXA-24; assay type: biochemical
OXA-58 = OXA-58 (Acinetobacter baumannii, UniProt Q2TR58); experiment: Inhibition assay with nitrocefin as reporter, OXA-58; assay type: biochemical

C[C@@H](O)[C@H]1C(=O)N2C(C(=O)O)=C(SCCN=CN)C[C@H]12 [IMP, imipenem]
MIC (E. coli MG1655OXA-48; MG1655OXA48, read-out: IMP MIC, no inhibitor (0 μg/mL)): 0.625 µg/mL (≈ 2.09 µM)

CCOc1ccccc1N1CCN(c2ncnc(N3CCC(C(=O)O)CC3)n2)CC1 [CDD-97]
AMP MIC (E. coli MG1655OXA-48; with CDD-97 4 μg/mL): 1024 µg/mL
IMP MIC (E. coli MG1655OXA-48; with CDD-97 4 μg/mL): 0.625 µg/mL
AMP MIC (E. coli MG1655OXA-48; with CDD-97 8 μg/mL): 512 µg/mL
IMP MIC (E. coli MG1655OXA-48; with CDD-97 8 μg/mL): 0.3125 µg/mL
AMP MIC (E. coli MG1655OXA-48; with CDD-97 16 μg/mL): 512 µg/mL
IMP MIC (E. coli MG1655OXA-48; with CDD-97 16 μg/mL): 0.3125 µg/mL
AMP MIC (E. coli MG1655OXA-48; with CDD-97 32 μg/mL): 512 µg/mL
IMP MIC (E. coli MG1655OXA-48; with CDD-97 32 μg/mL): 0.3125 µg/mL
AMP MIC (E. coli MG1655OXA-48; with CDD-97 64 μg/mL): 512 µg/mL
IMP MIC (E. coli MG1655OXA-48; with CDD-97 64 μg/mL): 0.3125 µg/mL
Ki (OXA-163): 0.44 ± 0.02 µM
level in cells lower than the positive control tetracycline (E. coli MG1655): 20 fold
Ki (OXA-48): 0.53 ± 0.08 µM
Ki less potent than observed for OXA-48 (OXA-10; OXA-10 vs OXA-48): about 100 fold
Ki (OXA-10; read-out: CDD-97 Ki, OXA-10, nitrocefin substrate): 61 ± 27 µM
decrease in potency compared to OXA-48 (OXA-24; OXA-24 vs OXA-48): 26 fold
Ki (OXA-24; read-out: CDD-97 Ki, OXA-24, nitrocefin substrate): 14 ± 1 µM
Ki less potent than observed for OXA-48 (OXA-58; OXA-58 vs OXA-48): about 100 fold
Ki (OXA-58; read-out: CDD-97 Ki, OXA-58, nitrocefin substrate): 45 ± 0.8 µM

NC(=O)[C@@H]1CC[C@@H]2CN1C(=O)N2OS(=O)(=O)O [Avibactam, avibactam]
MIC (E. coli MG1655OXA-48; MG1655OXA48, read-out: AMP MIC, with avibactam 0.125 μg/mL): 256 µg/mL
MIC (E. coli MG1655OXA-48; MG1655OXA48, read-out: AMP MIC, with avibactam 0.25 μg/mL): 128 µg/mL
MIC (E. coli MG1655OXA-48; MG1655OXA48, read-out: AMP MIC, with avibactam 0.5 μg/mL): 64 µg/mL
MIC (E. coli MG1655OXA-48; MG1655OXA48, read-out: AMP MIC, with avibactam 1 μg/mL): 32 µg/mL
MIC (E. coli MG1655OXA-48; MG1655OXA48, read-out: AMP MIC, with avibactam 2 μg/mL): 16 µg/mL
MIC (E. coli MG1655OXA-48; MG1655OXA48, read-out: AMP MIC, with avibactam 4 μg/mL): 4 µg/mL
MIC (E. coli MG1655OXA-48; MG1655OXA48, read-out: IMP MIC, with avibactam 0.125 μg/mL): 0.312 µg/mL
MIC (E. coli MG1655OXA-48; MG1655OXA48, read-out: IMP MIC, with avibactam 0.25 μg/mL): 0.312 µg/mL
MIC (E. coli MG1655OXA-48; MG1655OXA48, read-out: IMP MIC, with avibactam 0.5 μg/mL): 0.156 µg/mL
MIC (E. coli MG1655OXA-48; MG1655OXA48, read-out: IMP MIC, with avibactam 1 μg/mL): 0.156 µg/mL
MIC (E. coli MG1655OXA-48; MG1655OXA48, read-out: IMP MIC, with avibactam 2 μg/mL): 0.156 µg/mL
MIC (E. coli MG1655OXA-48; MG1655OXA48, read-out: IMP MIC, with avibactam 4 μg/mL): 0.0781 µg/mL
change of both the AMP and IMP MICs with increasing inhibitor concentration (E. coli MG1655OXA-48; inhibitor up to 4 μg/ml): dose-dependent decrease

CC1(C)S[C@@H]2[C@H](NC(=O)[C@H](N)c3ccccc3)C(=O)N2[C@H]1C(=O)O [AMP, ampicillin]
MIC (E. coli MG1655OXA-48; MG1655OXA48, read-out: AMP MIC, no inhibitor (0 μg/mL)): 512 µg/mL (≈ 1470 µM)

Reference: publication PMC7673237 (ACS infectious diseases, 2020)
